Drawing on ChEMBL document CHEMBL1126402, “The design and biological evaluation of a series of 3-hydroxy-3-methylglutaryl coenzyme a (HMG-CoA) reductase inhibitors related to dihydromevinolin” (Bioorg Med Chem Lett, 1992), this text covers IC50 and Selectivity for eight compounds.

pIC50: −log10 of the molar value. Calls of active or inactive are those of the source. The calls are words filed in the database; no cut-off is given here.

In assay [1] the target is T1, 3-hydroxy-3-methylglutaryl-coenzyme A reductase (Rattus norvegicus, UniProt P51639).
T1 sequence (P51639 whole entry): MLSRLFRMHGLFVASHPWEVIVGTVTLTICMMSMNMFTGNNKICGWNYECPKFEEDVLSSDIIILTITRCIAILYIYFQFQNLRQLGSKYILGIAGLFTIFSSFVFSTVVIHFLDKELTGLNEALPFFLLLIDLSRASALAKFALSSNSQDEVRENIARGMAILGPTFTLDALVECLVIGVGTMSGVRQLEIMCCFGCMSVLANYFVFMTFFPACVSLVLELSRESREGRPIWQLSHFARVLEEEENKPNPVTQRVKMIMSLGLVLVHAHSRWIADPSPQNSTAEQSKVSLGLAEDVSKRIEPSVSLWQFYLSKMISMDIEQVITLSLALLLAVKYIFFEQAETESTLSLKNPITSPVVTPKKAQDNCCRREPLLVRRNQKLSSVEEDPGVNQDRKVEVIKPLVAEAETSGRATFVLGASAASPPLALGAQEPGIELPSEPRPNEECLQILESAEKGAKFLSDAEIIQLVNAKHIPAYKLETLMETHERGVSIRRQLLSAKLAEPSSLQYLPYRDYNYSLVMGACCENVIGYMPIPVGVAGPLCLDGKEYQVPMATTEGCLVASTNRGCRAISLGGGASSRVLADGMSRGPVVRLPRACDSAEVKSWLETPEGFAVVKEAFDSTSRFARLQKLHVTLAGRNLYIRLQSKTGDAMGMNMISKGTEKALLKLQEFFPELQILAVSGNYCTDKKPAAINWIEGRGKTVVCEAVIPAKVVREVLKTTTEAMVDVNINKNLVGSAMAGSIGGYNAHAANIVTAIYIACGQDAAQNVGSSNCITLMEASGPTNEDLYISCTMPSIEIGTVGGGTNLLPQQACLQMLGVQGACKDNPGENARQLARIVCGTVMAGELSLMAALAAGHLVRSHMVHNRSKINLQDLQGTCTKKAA
Briefly: Inhibition of microsomal rat liver HMG-CoA reductase.

A short description of assay [2]: Selectivity in vivo against rat assay; A - greater inhibition in liver than in spleen, testes, kidney. In kind it is functional, organism-based.
Assay [3] in a line: Selectivity in vivo against rat assay; NS - no significant difference between organs. In kind it is functional, organism-based.

By pIC50 is commonly meant the IC50 on a negative log10 scale, so that one unit is a factor of ten. Read a high pIC50 as a low IC50. On to `CCC(C)C(=O)O[C@H]1C[C@@H](C)C[C@@H]2C=C[C@H](C)[C@H](CCC(=O)C[C@@H](O)CC(=O)OC)[C@@H]12` (stereo partly specified), for which the pIC50 in assay [1] is 7.10.

For `CC[C@H](C)C(=O)O[C@H]1C[C@@H](C)C=C2C=C[C@H](C)[C@H](CC[C@@H]3C[C@@H](O)CC(=O)O3)[C@H]21` [LOVASTATIN], the pIC50 in assay [1] is 7.96. Further, the Selectivity result in assay [2] is reported as “A”.

Regarding `C/C=C\[C@@H]1C[C@H](OC(C)=O)[C@@H]2[C@@H](CC[C@@H]3C[C@@H](O)CC(=O)O3)[C@@H](C)C=C[C@H]2C1`, in assay [1], the pIC50 is 5.82.

Turning to `CC/C=C/[C@@H]1C[C@H](OC(=O)C(C)(C)CC)[C@@H]2[C@@H](CC[C@@H]3C[C@@H](O)CC(=O)O3)[C@@H](C)C=C[C@H]2C1`, the pIC50 in assay [1] is 7.82. Compared with the last compound, the pIC50 is 2.00 log units higher.

As to `CCC(C)C(=O)O[C@H]1C[C@@H](C)C[C@@H]2C=CC[C@H](CC[C@@H]3C[C@@H](O)CC(=O)O3)[C@@H]12` (stereo partly specified), in assay [1], the pIC50 is 5.82.

The compound `C/C=C/[C@@H]1C[C@H](OC(=O)C(C)(C)CC)[C@@H]2[C@@H](/C=C/[C@@H]3C[C@@H](O)CC(=O)O3)[C@@H](C)C=C[C@H]2C1` gave a pIC50 in assay [1] of 7.00. Against the preceding compound, the pIC50 is 1.18 log units higher.

Consider `CCC/C(C)=C/[C@@H]1C[C@H](OC(=O)C(C)(C)CC)[C@@H]2[C@@H](CC[C@@H]3C[C@@H](O)CC(=O)O3)[C@@H](C)C=C[C@H]2C1`, for which, in assay [1], the pIC50 is 8.10. The Selectivity entry in assay [3] is “inactive”.

With `CCC/C(C)=C/[C@@H]1C[C@H](OC(=O)[C@@H](C)CC)[C@@H]2[C@@H](CC[C@@H]3C[C@@H](O)CC(=O)O3)[C@@H](C)C=C[C@H]2C1`, the pIC50 in assay [1] is 7.70. In addition, the Selectivity result in assay [3] was “inactive”.
